Experimental data: patent US20030166606A1, “5'-deoxy-n-(substituted oxycarbonyl)-5-fluorocytosine and derivatives thereof, method of preparing same, and anticancer composition comprising same as active ingredients” (priority 2003, published 2003)
≈ marks a conversion by molar mass, not a printed value. Like-named read-outs stand apart in the source and are kept apart here.

Experiments:
HCT15 (colon cancer) = assay: MTT cell toxicity to human cancer cells, HCT15; format: cell-based; conditions: for IC50 Cancer cell line HCT15: 72 hours, Table 3; for IC50: Homo sapiens, HCT-15, 72 hours
Protocol: (§1) For measuring in vitro anticancer activity of 5′-deoxy-N^4-propargyloxycarbonyl-5-fluorocytosine-5′-carboxylic acid (R^3=propargyl, compound of 2a) using 5-Fu as a reference compound, cell toxicity to human cancer cell was evaluated. The cancer cells used were A549 (lung cancer), HCT15 (colon cancer), SK-OV-3 (ovarian cancer), and SK-MEL-2 (melanoma cancer).
(§2) The cancer cells were incubated in an incubator with a constant humidity at 37° C. and 5% CO2, and an RPMI medium with the addition of 10% fetal bovine serum was used for a basic medium. In order to identify cell toxicity, the cancer cells in a logarithmic phase were inoculated at 2-5×10^4 cells per well of a 96-well plate, and incubated for 24 hours. A sample solution of 5-FU and 5′-deoxy-N^4-propargyloxycarbonyl-5-flurocytosine-5′-carboxylic acid was stepwisely added to the well and incubated for 72 hours. 20 μl of 5 mg/ml MTT reacting solution dissolved in a physiological saline solution was added to the well of the incubated plate and incubated for 4 hours. The produced formazan crystal was dissolved in dimethylsulfoxide and absorbance of each well was measured at 540 nm to calculate a number of living cells. The absorbance of the well with the medium and without cell was set to 0%, that of the well without the sample was set to 100%, and the concentration corresponding to 50% was called an IC50 (μg/ml) value.
(§3) In order to measure anticancer activity of 5′-deoxy-N-alkyloxycarbonyl-5-fluorocytosine-5′-carboxylic acid (compound of Formula 2a) of the present invention using 5-FU as a control, the cell toxicity to human cancer cells was measured. The human cancer cells used were A549 (lung cancer), HCT15 (colon cancer), SK-OV-3 (ovarian cancer), and SK-MEL-2 (melanoma cancer).
(§4) The cancer cells were cultured in an incubator with a constant humidity at 37° C. and 5% CO2, and an RPMI medium with 10% fetal bovine serum was used for a medium. In order to measure cell toxicity, the cancer cells in a logarithmic phase were inoculated into 2 to 5×10^4 cells per well of a 96-well plate, incubated for 24 hours, and a sample solution of a stepwise dilution of 5-FU and 5′-deoxy-N^4-pentyloxycarbonyl-5-fluorocytocine-5′-carboxylic acid were added thereto followed by incubating for 72 hours. 20 μl of 5 mg/ml of MTT reacting solution dissolved in a physiological saline solution was added to each well of the incubated plate, incubated for 4 hours, the produced formazan crystal was dissolved in dimethylsulfoxide, and the absorbance of each well was measured at a wavelength of 540 nm to calculate the number of living cells.

[1] = test system: SK-MEL-2 (melanoma cancer); assay: MTT cell toxicity to human cancer cells, SK-MEL-2; format: cell-based; conditions: for IC50 Cancer cell line SK-MEL2: 72 hours, Table 3
Protocol: as §1, §2, §3, §4

[2] = test system: mouse tumor cell line L1210; assay: Anticancer activity on L1210 in BDF1 mice, increased life span (Example 35, Table 5); format: in vivo; conditions: 15 times; for Average life day: control 17.8
Protocol: The mice used were 5-week-old BDF1 male mice (19 to 20 g) that were purchased from Charles River Japan, and adapted for 1 week. The breeding condition of the mice was set to a temperature of 24±2° C. and a humidity of […] Purified water for drinking water was supplied to the mice twice a week, and straws and cages were changed once a week. The experiment was performed using two mice per group. […] The drug was orally administered 24 hours after the cellular transplantation. […] The capecitabine was dissolved in dimethylsulfoxide and suspended in 0.5% carboxymethyl cellulose, and the compound of 2a was dissolved in distilled water. […] The anticancer activity was determined as increased life span.

A549 (lung cancer) = assay: MTT cell toxicity to human cancer cells, A549; format: cell-based; conditions: for IC50 Cancer cell line A549: 72 hours, Table 3
Protocol: as §1, §2, §3, §4

SK-OV-3 (ovarian cancer) = assay: MTT cell toxicity to human cancer cells, SK-OV-3; format: cell-based; conditions: for IC50 Cancer cell line SK-OV-3: 72 hours, Table 3; for IC50: Homo sapiens, SK-OV-3, 72 hours
Protocol: as §1, §2, §3, §4

[3] = test system: mouse tumor cell line L1210; assay: Anticancer activity on L1210 in BDF1 mice, increased life span (Example 34, Table 4); format: in vivo; conditions: for Average life maintenance day: control 8.8
Protocol: Capecitabine (5′-deoxy-N^4-(pentyloxycarbonyl)-5-fluorocytosine (in Formula 1, R^a=pentyl, R^b=hydrogen) which has good anticancer activity among. 5′-deoxy-N-alkyloxycarbonyl-5-fluorocytosine derivatives disclosed in European Patent No. 602454 was used for a control, 5′-deoxy-N^4-propazyloxycarbonyl-5-fluorocytosine-5′-carboxylic acid (Formula 2a) obtained from Example 3 was used for a sample, and anticancer activity to the mouse tumor cell line L1210 was measured.
The mice used were 5-week-old BDF1 male mice (19 to 20 g) that were purchased from Charles River Japan, and adapted for 1 week. The breeding condition of the mouse was set to a temperature of 24±2° C. and a humidity of […] Purified water for drinking was supplied to the mice twice a week, and straws and cages were changed once a week. The experiment was performed using two mice per group. As the tumor cell line, an L1210 mouse blood tumor cell line was used, the cell line was sub-cultured in a Falcon culture flask twice or three times, washed with a phosphorous buffer solution (pH 7.2), quantified under a microscope to produce a cell suspension of 1×10^7/ml, and 100 (1×10^6) […] of the cell suspension was abdominally administered to the mouse using 1 ml of a disposable sterilized injector. The drug was orally administered 24 hours after the cellular transplantation. The concentration of the administered capecitabine was 1.2, 5.7, 28.8, 144, and 720 mg/kg/100 μl for respective mice, and that of the compound of 2a of the present invention was 1.2, 5.8, 28.8 mg/kg/100 μl for respective mice. The capecitabine was dissolved in dimethylsulfoxide and suspended in 0.5% carboxymethyl cellulose, and the compound of 2a was dissolved in distilled water. The samples were administered to the mice five times a week for 3 weeks, for a total of 15 times, starting 24 hours after the tumor cell administration. The anticancer activity was determined as increased life span to control.

[4] = test system: mouse tumor cell line L1210; assay: Anticancer activity on L1210 in BDF1 mice, increased life span (Example 6, Table 2); format: in vivo; conditions: for Increased life span (%) / Average survival date: 15 times; for Average survival date: control 17.8
Protocol: The mice used were 5-week-old BDF1 male mice (19 to 20 g) that were purchased from Charles River Japan, and adapted for 1 week. The breeding condition of the mice was set to a temperature of 24±2° C. and a humidity of 50±1° C. Purified water for drinking was supplied to the mice twice a week, and straws and cages were changed once a week. The experiment was performed using two mice per group. As the tumor cell line, an L1210 mouse blood tumor cell line was used, and the cell line was sub-cultured in a Falcon culture flask twice or three times, washed with a phosphorous buffer solution (pH 7.2), and quantified under a microscope to produce a cell suspension of 1×10^7/ml, and 100 (1×10^6) ml of the cell suspension was abdominally administered to the mouse using 1 ml of a disposable sterilized injector. The drug was orally administered 24 hours after the cellular transplantation. […] The samples were administered to the mice five times a week for 3 weeks, for a total of 15 times, starting 24 hours after the tumor cell administration. The anticancer activity was determined as increased life span to control.

SMILES | IC50 Cancer cell line HCT15 (HCT15 (colon cancer)) [µg/mL] | IC50 Cancer cell line SK-MEL2 [1] [µg/mL] | Life maintenance rate (%) ([2]; 1.2 mg/kg/day oral) | Average life day ([2]; 1.2 mg/kg/day oral) [days] | Life maintenance rate (%) ([2]; 5.8 mg/kg/day oral) | Average life day ([2]; 5.8 mg/kg/day oral) [days] | Life maintenance rate (%) ([2]; 28.8 mg/kg/day oral) | Average life day ([2]; 28.8 mg/kg/day oral) [days] | IC50 Cancer cell line A549 (A549 (lung cancer)) [µg/mL] | IC50 Cancer cell line SK-OV-3 (SK-OV-3 (ovarian cancer)) [µg/mL] | Increased life span (%) ([3]; 0.13 mmol/kg/day oral) | Average life maintenance day ([3]; 0.13 mmol/kg/day oral) [days] | Increased life span (%) ([3]; 0.67 mmol/kg/day oral) | Average life maintenance day ([3]; 0.67 mmol/kg/day oral) [days] | Increased life span (%) ([3]; 1.5 mmol/kg/day oral) | Average life maintenance day ([3]; 1.5 mmol/kg/day oral) [days] | Increased life span (%) ([4]; 5.8 mg/kg/day oral) | Average survival date ([4]; 5.8 mg/kg/day oral) [days] | Increased life span (%) ([4]; 28.8 mg/kg/day oral) | Average survival date ([4]; 28.8 mg/kg/day oral) [days] | further results
C=CCOC(=O)Nc1nc(=O)n([C@@H]2O[C@H](C(=O)O)[C@@H](O)[C@H]2O)cc1F [Example 30, 5′-deoxy-N^4-(allyloxycarbonyl)-5-fluorocytosine-5′-carboxylic acid] | 0.032 (≈ 0.0891 µM) | 0.008 (≈ 0.0223 µM) | 25 | 22.1 | 39 | 24.8 | 44 | 25.7 | 0.04 (≈ 0.111 µM) | 0.008 (≈ 0.0223 µM) |  |  |  |  |  |  |  |  |  |  | 
CCCCCOC(=O)Nc1nc(=O)n([C@@H]2O[C@H](C(=O)O)[C@@H](O)[C@H]2O)cc1F [Example 28, 5′-deoxy-N^4-(pentyloxycarbonyl)-5-fluorocytosine-5′-carboxylic acid] | 0.12 (≈ 0.308 µM) | 0.03 (≈ 0.0771 µM) |  |  |  |  |  |  | 0.17 (≈ 0.437 µM) | 0.03 (≈ 0.0771 µM) | 3.4 | 9.1 | 28.4 | 11.3 | 91.9 | 16.8 |  |  |  |  | 
C#CCOC(=O)Nc1nc(=O)n([C@@H]2O[C@H](C(=O)O)[C@@H](O)[C@H]2O)cc1F [Example 3, 5′-deoxy-N^4-(propargyloxycarbonyl)-5-fluorocytosine-5′-carboxylic acid] | 0.040 (≈ 0.112 µM) | 0.007 (≈ 0.0196 µM) | 8 | 20.1 | 11 | 20.6 | 23 | 21.9 | 0.005 (≈ 0.014 µM) | 0.005 (≈ 0.014 µM) |  |  |  |  |  |  | 11 | 20.6 | 23 | 21.9 | Increased life span (%) ([4]; 1.2 mg/kg/day oral): 8%; Average survival date ([4]; 1.2 mg/kg/day oral): 20.1 days; anticancer activity in vivo ([4]; summary of Table 2, animal experiment): good anticancer activity in vivo
O=c1[nH]cc(F)c(=O)[nH]1 [Example 5-FU, 5-fluorouracil, reference compound] |  |  |  |  |  |  |  |  |  |  |  |  |  |  |  |  |  |  |  |  | IC50 (HCT15 (colon cancer); Table 1, read-out: IC50 Concentration (μg/ml) HCT15): 0.11 µg/mL (≈ 0.846 µM); IC50 (HCT15 (colon cancer); Table 3, read-out: IC50 Cancer cell line HCT15): 0.11 µg/mL (≈ 0.846 µM); IC50 ([1]; Homo sapiens, SK-MEL-2, 72 hours, Table 3, read-out: IC50 Cancer cell line SK-MEL2): 0.63 µg/mL (≈ 4.84 µM); Increased life span (%) ([3]; 0.15 mmol/kg/day): 62.5%; Average life maintenance day ([3]; 0.15 mmol/kg/day): 14.3 days; Increased life span (%) ([3]; 0.23 mmol/kg/day): 87.5%; Average life maintenance day ([3]; 0.23 mmol/kg/day): 16.5 days; IC50 (A549 (lung cancer); Homo sapiens, A549, 72 hours, Table 3, read-out: IC50 Cancer cell line A549): 0.26 µg/mL (≈ 2 µM); IC50 (SK-OV-3 (ovarian cancer); Table 1, read-out: IC50 Concentration (μg/ml) SK-OV-3): 0.03 µg/mL (≈ 0.231 µM); IC50 (SK-OV-3 (ovarian cancer); Table 3, read-out: IC50 Cancer cell line SK-OV-3): 0.03 µg/mL (≈ 0.231 µM)
CCCCCOC(=O)Nc1nc(=O)n([C@@H]2O[C@H](C)[C@@H](O)[C@H]2O)cc1F [Capecitabine, 5′-deoxy-N^4-(pentyloxycarbonyl)-5-fluorocytosine] |  |  | 6 | 18.9 | 8 | 19.2 | 14 | 20.2 |  |  | 6.8 | 9.4 | 9.1 | 9.6 | 42.0 | 12.5 | 8 | 19.2 | 14 | 20.2 | Life maintenance rate (%) ([2]; 144 mg/kg/day oral): 15%; Average life day ([2]; 144 mg/kg/day oral): 20.1 days; Life maintenance rate (%) ([2]; 720 mg/kg/day oral): 30%; Average life day ([2]; 720 mg/kg/day oral): 22.8 days; Increased life span (%) ([4]; 144 mg/kg/day oral): 15%; Average survival date ([4]; 144 mg/kg/day oral): 20.1 days; Increased life span (%) ([4]; 720 mg/kg/day oral): 30%; Average survival date ([4]; 720 mg/kg/day oral): 22.8 days
CCOC(=O)Nc1nc(=O)n([C@@H]2O[C@H](C(=O)O)[C@@H](O)[C@H]2O)cc1F [Example 25, 5′-deoxy-N^4-(ethyloxycarbonyl)-5-fluorocytosine-5′-carboxylic acid] | 0.47 (≈ 1.35 µM) | 0.16 (≈ 0.461 µM) |  |  |  |  |  |  | 0.49 (≈ 1.41 µM) | 0.16 (≈ 0.461 µM) |  |  |  |  |  |  |  |  |  |  | 
